Assays:
Experiment in all cases: Cell proliferation inhibition experiment, CellTiter-Glo (CTG) method
Assay type in all cases: cell-based
[1] = tested on: A-431; conditions: Homo sapiens, A-431, 72 h, A-431 cells, 3 days
Experimental: (§1) Cell Proliferation Inhibition Experiment
(§2) Compounds were tested in the selected cell lines, and solvent is set as control, nine concentrations were detected with three parallel wells for each concentration.
(§3) 2. Reagents and Materials • 1) fetal bovine serum FBS (GIBCO, Cat #10099-141) • 2) CellTiter-Glo® Luminescent Cell Viability Assay (Promega, Cat #G7572) • 3) 96-well plate with flat clear bottom, black wall plates (Corning®, Cat #3340)
(§4) The first day: Incubation and plant of cells • 1) Cells in logarithmic growth phase were harvested and counted by cell counter. Cell viability was detected by trypan blue exclusion assay to ensure that the viability of each cell line was above 90%. • 2) Cell concentration was adjusted by diluting complete culture medium, and 90 μL cell suspension was added to a 96-well plate (T0 plate and drug plate to be tested) to make the cell density reach the specified concentration. • 3) Cells in 96-well plate were incubated overnight at condition of 37° C., 5% CO2 and 95% humidity.
(§5) The second day: Reading T0 plate • 1) 10 μL culture medium was added to T0 plate. • 2) CTG reagent was melt, while the cell plate was balanced to room temperature for 30 minutes. • 3) The same volume of CTG solution was added to each well. • 4) The cell plate was vibrated for 2 minutes on an orbital shaker to lyze the cells. • 5) The cell plate was placed at room temperature for 10 minutes to stabilize the cold light signal. • 6) The cold light value was read with EnVision.
Drug Addition • 1) Drug dilution. The compounds to be tested were dissolved and packaged, then a gradient elution was performed to obtain a solution diluted 10 times. • 2) Drug addition. […] drug solution was added into each well of the 96-well plate, which was inoculated cells, three parallel wells were set for each cell concentration. The highest concentration of the compounds to be tested on A-431 was 30 μM, nine concentrations was set with 3 times dilution; while the highest concentration on NCI-H1975 and PC-9 was 1.111 μM, 9 concentrations was set with 3 times dilution. • 3) Culture. Cells in 96-well plates in which drugs have been added were cultured at condition of 37° C., 5% CO2 and 95% humidity for 3 days, and then CTG assay was performed respectively.
(§6) The third day: reading plate at the terminal • 1) CTG reagent was melt, while the cell plate was balanced to room temperature for 30 minutes. • 2) The same volume of CTG solution was added to each well. • 3) The cell plate was vibrated for 2 minutes on an orbital shaker to lyze the cells. • 4) The cell plate was placed at room temperature for 10 minutes to stabilize the cold light signal. • 5) The cold light value was read with EnVision
(§7) Data were analyzed using GraphPad Prism 5.0 software, and non-linear S curve regression was used for fitting the data to give a dose-effect curve, IC50 value was calculated accordingly. Cell Survival Rate (%)=(Lumdrugs−Lumcontrol)/(Lumcell−Lumcontrol)×100%.

[2] = tested on: PC-9; conditions: Homo sapiens, PC-9, 72 h, PC-9 cells, 3 days
Experimental: as §1, §2, §3, §4, §5
(§8) Drug Addition • 1) Drug dilution. The compounds to be tested were dissolved and packaged, then a gradient elution was performed to obtain a solution diluted 10 times. • 2) Drug addition. […] drug solution was added into each well of the 96-well plate, which was inoculated cells, three parallel wells were set for each cell concentration.
as §6, §7

[3] = tested on: NCI-H1975; conditions: for IC50: Homo sapiens, NCI-H1975, 72 h, NCI-H1975 cells, CTG, 3 days; for A-431/NCI-H1975 Selectivity: ratio of A-431 IC50 to NCI-H1975 IC50
Experimental: as §1, §2, §3, §4, §5, §8, §6, §7

Compound	IC50 [1] [nM]	IC50 [2] [nM]	IC50 [3] [nM]	A-431/NCI-H1975 Selectivity [3]
C=CC(=O)Nc1cc(Nc2cc(-c3ccc4c(cnn4C)c3)ncn2)c(OC(F)F)cc1N(C)CCN1CCN(C)CC1 [compound 67]	891	15	14.6	61.0
C=CC(=O)Nc1cc(Nc2cc(-c3ccc4c(cnn4C)c3)ncn2)c(OC)cc1N(C)C1CCCN(C)C1 (stereo not drawn) [compound 69]	1830	10.4	13.4	136.8
C=CC(=O)Nc1cc(Nc2cc(-c3ccc4c(cnn4C)c3)ncn2)c(OC)cc1N(C)C1CCC(N(C)C)CC1 (stereo not drawn) [compound 71]	2560	27.8	33.1	77.3
C=CC(=O)Nc1cc(Nc2cc(-c3ccc4c(cnn4C)c3)ncn2)c(OC)cc1N(C)C1CCC(N2CCN(C)CC2)CC1 (stereo not drawn) [compound 72]	1900	29.7	45.2	42.1
C=CC(=O)Nc1cc(Nc2cc(-c3ccc4cnn(C)c4c3)ncn2)c(OC)cc1N(C)C1CCCN(C)C1 (stereo not drawn) [compound 73]	1030	50.4	65.3	15.7
C=CC(=O)Nc1cc(Nc2cc(-c3ccc4cnn(C)c4c3)ncn2)c(OC)cc1N(C)C1CCN(C)C1 (stereo not drawn) [compound 74]	1150	10.6	31.9	36.0
C=CC(=O)Nc1cc(Nc2cc(-c3ccc4c(cnn4C)c3)ncn2)c(OC(C)C)cc1N(C)CCN(C)C [compound 75]	1500	13.6	24.3	61.7
C=CC(=O)Nc1cc(Nc2cc(-c3ccc4c(cnn4C)c3)ncn2)c(OC)cc1N(C)CCN(C)C(C)=O [compound 76]	9450	57.9	87.3	108.3
C=CC(=O)Nc1cc(Nc2cc(-c3ccc4cnn(C)c4c3)ncn2)c(OC)cc1N1CCN(CCN(C)C)CC1 [compound 77]	1150	16.4	34.5	33.5
C=CC(=O)Nc1cc(Nc2cc(-c3ccc4cnn(C)c4c3)ncn2)c(OC)cc1N(C)CCN1CCN(C)CC1 [compound 78]	1030	47.8	61.8	16.7
C=CC(=O)Nc1cc(Nc2cc(-c3ccc4cnn(C)c4c3)ncn2)c(OC)cc1N(C)CCCN(C)C [compound 79]	1100	67.9	73.6	15
C=CC(=O)Nc1cc(Nc2cc(-c3ccc4cnn(C)c4c3)ncn2)c(OC)cc1N(C)CCN(CC)CC [compound 80]	586	35.9	43	13.6
C=CC(=O)Nc1cc(Nc2cc(-c3ccc4ncsc4c3)ncn2)c(OC)cc1N(C)C1CCN(C)CC1 [compound 81]	1380	26.4	28.7	48.1
C=CC(=O)Nc1cc(Nc2cc(-c3ccc4ncsc4c3)ncn2)c(OC)cc1N1C[C@@H](C)N(C)[C@@H](C)C1 [compound 82]	1090	29.6	24	45.6
C=CC(=O)Nc1cc(Nc2cc(-c3ccc4c(cnn4C(C)C)c3)ncn2)c(OC)cc1N1C[C@@H](C)N(C)[C@@H](C)C1 [compound 83]	1520	77.9	67.2	22.6
C=CC(=O)Nc1cc(Nc2cc(-c3ccc4c(cnn4C(C)C)c3)ncn2)c(OC)cc1N1CCC(N2CCN(C)CC2)CC1 [compound 84]	988	27.5	34.4	28.7
C=CC(=O)Nc1cc(Nc2cc(-c3ccc4c(cnn4C(C)C)c3)ncn2)c(OC)cc1N(C)C1CCN(C)CC1 [compound 85]	1840	56.7	72.3	25.4
C=CC(=O)Nc1cc(Nc2cc(-c3ccc4c(cnn4C(C)C)c3)ncn2)c(OC)cc1N1CCC(C2CCN(C)CC2)CC1 [compound 86]	1780	76.4	91.6	19.4
C=CC(=O)Nc1cc(Nc2cc(-c3ccc4c(cnn4C(C)C)c3)ncn2)c(OC)cc1N(C)C1CCN(C2CCN(C)CC2)CC1 [compound 87]	1960	77.6	114	17.2
C=CC(=O)Nc1cc(Nc2cc(-c3ccc4c(cnn4C)c3)ncn2)c(OC)cc1N(C)CCN(C)CC [compound 88]	987	7.2	6.1	161.8
C=CC(=O)Nc1cc(Nc2cc(-c3ccc4c(cnn4CC)c3)ncn2)c(OCC)cc1N(C)CCN(C)C [compound 89]	954	14.8	19.9	48.0
C=CC(=O)Nc1cc(Nc2cc(-c3ccc4c(cnn4C)c3)ncn2)c(OCC)cc1N1C[C@@H](C)N(C)[C@@H](C)C1 [compound 90]	1750	15.5	26.5	66.2
C=CC(=O)Nc1cc(Nc2cc(-c3ccc4c(cnn4CC)c3)ncn2)c(OCC)cc1N1C[C@@H](C)N(C)[C@@H](C)C1 [compound 91]	1320	47.2	62.2	21.3
C=CC(=O)Nc1cc(Nc2cc(-c3ccc4c(cnn4CC)c3)ncn2)c(OC(F)F)cc1N(C)CCN(C)C [compound 92]	764	13.1	9.3	82.1
C=CC(=O)Nc1cc(Nc2cc(-c3ccc4c(cnn4C)c3)ncn2)c(OCC)cc1N(C)CCN(CC)CC [compound 93]	854	18.5	20.5	41.7
C=CC(=O)Nc1cc(Nc2cc(-c3ccc4c(cnn4CC)c3)ncn2)c(OCC)cc1N(C)CCN(CC)CC [compound 94]	2040	55.7	47.8	42.6
C=CC(=O)Nc1cc(Nc2cc(-c3ccc4c(cnn4C)c3)ncn2)c(OC(F)F)cc1N(C)CCN(CC)CC [compound 95]	997	12.2	6.7	148.9
